Assay results: US20260273072A1, “NOVEL PLK1 DEGRADATION INDUCING COMPOUND” (UPPTHERA, INC., priority 2023, published 2026)
Where two headings read alike, the source gives them in different places.

Legend:
Assay type in all cases: cell-based
NCI-H526 cell line = experiment: Cell viability assay for NCI-H526 cell line (EZ-Cytox); conditions: Homo sapiens, NCI-H526, 120 h; H526 cells, 5 days, 3000 nM to 0.46 nM
Experimental: (§1) 3. Cell Viability Assay for NCI-H69, NCI-H526 Cell Lines
(§2) (1) Culture of NCI-H69, NCI-H526 Cell Lines
(§3) The NCI-H69 (hereafter H69) and NCI-H526 (hereafter H526) cell lines were purchased from KCLB.
(§4) (2) Treatment of Compounds of the Present Invention and Method of Cell Viability Assay
(§5) After treating the compound to each well to make the total volume of 200 μl, it was cultured in a CO2 incubator (Thermo Fisher Scientific) for 5 days. […] The absorbance of the completely cultured sample was measured by setting the wavelength of a plate reader (BMG Labtech) to […], and was measured after shaking for 3 minutes in a plate reader before measurement.
(§6) The results of cell viability for H526 and H69 cell line are shown in Table 3 and Table 4, respectively.
(§7) In Table 3 and Table 4, Activity represents IC50 value of each Exemplary Compound treatment group to H526 and H69 cell line, respectively (A: <30 nM, B: <50 nM, C: <100 nM, D: <200 nM, E: <400 nM).

NCI-H69 cell line = experiment: Cell viability assay for NCI-H69 cell line (EZ-Cytox); conditions: Homo sapiens, NCI-H69, 120 h; H69 cells, 5 days, 3000 nM to 0.46 nM
Experimental: as §1, §2, §3, §4, §5, §6, §7

PLK1 = biological target: T1, PLK1 (Homo sapiens, UniProt P53350); experiment: Luciferase assay for PLK1 in HeLa LgBit (Plk1-HiBit KI) cell line; conditions: 300 nM compound, luminescence after 9 hours
T1 construct: endogenous in cells; host or cells: HeLa LgBit (Plk1-HiBit KI): HeLa stably expressing LgBit, with a CRISPR/Cas9 knock-in of HiBit at the endogenous PLK1 locus
T1 sequence (P53350 whole entry): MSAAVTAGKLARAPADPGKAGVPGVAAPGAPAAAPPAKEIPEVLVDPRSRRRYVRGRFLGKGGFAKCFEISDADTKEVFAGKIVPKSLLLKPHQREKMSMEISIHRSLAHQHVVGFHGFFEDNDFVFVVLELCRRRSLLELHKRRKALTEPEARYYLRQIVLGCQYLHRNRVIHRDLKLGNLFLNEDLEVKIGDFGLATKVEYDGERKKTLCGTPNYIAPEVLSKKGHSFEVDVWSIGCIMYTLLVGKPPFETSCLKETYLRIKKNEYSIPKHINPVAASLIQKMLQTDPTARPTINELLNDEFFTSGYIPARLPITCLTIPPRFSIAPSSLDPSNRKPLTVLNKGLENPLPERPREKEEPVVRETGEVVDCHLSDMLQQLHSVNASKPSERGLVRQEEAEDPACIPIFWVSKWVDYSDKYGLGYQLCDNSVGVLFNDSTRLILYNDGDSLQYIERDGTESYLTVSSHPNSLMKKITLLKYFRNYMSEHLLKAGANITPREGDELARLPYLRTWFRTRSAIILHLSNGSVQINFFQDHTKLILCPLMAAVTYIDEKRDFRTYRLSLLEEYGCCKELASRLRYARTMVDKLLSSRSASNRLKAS
Experimental: 2. Luciferase Assay for PLK1
(1) Preparation and Culture of HeLa LgBit (Plk1-HiBit KI) Cell Line
A HeLa cell line in which the LgBit vector was transfected and expressed stably was prepared. Then, after constructing gRNA and donor to express the HiBit amino acid sequence behind the C-terminal of the PLK1 gene, which was inherent in the cell, it was inserted into the cell together with a vector capable of expressing CRISPR/Cas9. Only the cells in which the insertion was completed and knock-in had progressed were selected, sub-cultured and used.
For cell culture, DMEM (Gibco), FBS (Gibco), PS (Gibco), […] cell culture dish (SPL), […] cell culture dish (SPL), 96-well culture plate (SPL), PBS pH 7.4 (Gibco), TrypLE™ Express (Gibco), Cell counter (Thermo Fisher Scientific) and 0.4% Trypan Blue Solution (DYNEBIO) were used.
(2) Treatment of Compounds of the Present Invention and Method of Luciferase Assay
In the case of HeLa LgBit (Plk1-HiBit KI), the compounds were treated after being released after thymidine block, and the process was as follows. Thymidine (Sigma-Aldrich) was completely dissolved in ddH2O and used in the experiment. For thymidine block, the products were treated with 2 mM of thymidine and then incubated for 24 hours. For release and chemical treatment, the medium was suctioned and washed with 1×PBS. TrypLE™ (Gibco) was added and incubated in 37° C. CO2 incubator (Thermo Fisher Scientific) for 5 mins. Cells neutralized by adding complete media were counted through a counter. For each well of a 96-well culture plate (SPL), 3.3×10^4 cells and a total medium volume of 150 μl were seeded and incubated in a CO2 incubator.
Each cell line was incubated in a CO2 incubator for 18 hours, and Endurazine (Promega, Cat. No. N257B) was added to each well to make up 4% of the total volume. After adding compounds of Examples in a 96-well white plate (SPL) to a concentration of 300 nM, the wavelength of the plate reader (BMG Labtech, CLARIOstar Plus) was set to 470-480 nm, and then the luminescence was tracked in real time.
In Table 2, Activity represents the ratio of the luminescence value of each Exemplary Compound treatment group to DMSO treatment group (+++: <0.3, ++: <0.5, +: <0.7).

MRC-5 cell line = experiment: Cell viability assay for MRC-5 cell line (EZ-Cytox); conditions: for IC50: Homo sapiens, MRC5, 120 h
Experimental: 4. Cell Viability Assay for MRC-5 Cell Line
(1) Culture of MRC-5 Cell Line
The MRC-5 cell line was purchased from KCLB. Passage of cultured cells was maintained within P15.
(2) Treatment of Compounds of the Present Invention
Then, it was cultured in 37° C. CO2 incubator (Thermo Fisher Scientific) for 5 days.
(3) Cytotoxicity Experiment
CO2 incubator for 4 hours.

[1] = MRC-5 normal cell line, 5 days, 10000 nM to 1.52 nM, read-out: Activity: IC50 value, cell viability, MRC-5 cell line (Exemplary Compounds)
[2] = read-out: Activity: IC50 value, cell viability, MRC-5 cell line (Comparative Compounds)

SMILES | IC50 (NCI-H526 cell line) [nM] | IC50 (NCI-H69 cell line) [nM] | Activity: ratio of the luminescence value of compound treatment group to DMSO treatment group (PLK1) | IC50 (MRC-5 cell line; [1]) [nM] | IC50 (MRC-5 cell line; [2]) [nM] | Cytotoxicity in normal cell line versus cancer cell lines (in words) (MRC-5 cell line; MRC-5 normal cell line compared with cancer cell lines)
COc1cc(C(=O)NC2CCN(CCC3CCN(c4cc(F)c(NC5CCC(=O)NC5=O)cc4F)CC3)CC2)ccc1Nc1ncc2c(n1)N(C1CCCC1)CC(F)(F)C(=O)N2C (centres unmarked) [Compound 63, 4-((9-cyclopentyl-7,7-difluoro-5-methyl-6-oxo-6,7,8,9-tetrahydro-5H-pyrimido[4,5-b][1,4]diazepin-2-yl)amino)-N-(1-(2-(1-(4-((2,6-dioxopiperidin-3-yl)amino)-2,5-difluorophenyl)piperidin-4-yl)ethyl)piperidin-4-yl)-3-methoxybenzamide] | < 30 | < 50 | +++ (+++: <0.3) | > 10000 |  | 
COc1cc(C(=O)NN2CCC(CCN3CCN(c4cc(F)c(NC5CCC(=O)NC5=O)cc4F)CC3)CC2)c(F)cc1Nc1ncc2c(n1)N(C1CCCC1)CC(F)(F)C(=O)N2C (centres unmarked) [Compound 59, 4-((9-cyclopentyl-7,7-difluoro-5-methyl-6-oxo-6,7,8,9-tetrahydro-5H-pyrimido[4,5-b][1,4]diazepin-2-yl)amino)-N-(4-(2-(4-(4-((2,6-dioxopiperidin-3-yl)amino)-2,5-difluorophenyl)piperazin-1-yl)ethyl)piperidin-1-yl)-2-fluoro-5-methoxybenzamide] | < 30 | < 50 | ++ (++: <0.5) | > 10000 |  | 
CCN1CC(F)(F)C(=O)N(C)c2cnc(Nc3ccc(C(=O)NC4CCC(N(C)CC5CCN(c6ccc(NC7CCC(=O)NC7=O)cc6F)CC5)CC4)cc3OC)nc21 (centres unmarked) [Compound 27, N((1r,4r)-4-(((1-(4-((2,6-dioxopiperidin-3-yl)amino)-2-fluorophenyl)piperidin-4-yl)methyl)(methyl)amino)cyclohexyl)-4-((9-ethyl-7,7-difluoro-5-methyl-6-oxo-6,7,8,9-tetrahydro-5H-pyrimido[4,5-b][1,4]diazepin-2-yl)amino)-3-methoxybenzamide] | < 30 | < 30 | +++ (+++: <0.3) | > 10000 |  | 
COc1cc(C(=O)NC2CCN(CCN3CCN(c4cc(F)c(NC5CCC(=O)NC5=O)cc4F)CC3)CC2)ccc1Nc1ncc2c(n1)N(C1CCCC1)CC(F)(F)C(=O)N2C (centres unmarked) [Compound 67, 4-((9-cyclopentyl-7,7-difluoro-5-methyl-6-oxo-6,7,8,9-tetrahydro-5H-pyrimido[4,5-b][1,4]diazepin-2-yl)amino)-N-(1-(2-(4-(4-((2,6-dioxopiperidin-3-yl)amino)-2,5-difluorophenyl)piperazin-1-yl)ethyl)piperidin-4-yl)-3-methoxybenzamide] | < 30 | < 30 | ++ (++: <0.5) | > 10000 |  | 
COc1cc(C(=O)NC2CCN(CCC3CCN(c4cc(F)c(NC5CCC(=O)NC5=O)cc4F)CC3)CC2)ccc1Nc1ncc2c(n1)N(C(C)C)CC(F)(F)C(=O)N2C (centres unmarked) [Compound 62, 4-((7,7-difluoro-9-isopropyl-5-methyl-6-oxo-6,7,8,9-tetrahydro-5H-pyrimido[4,5-b][1,4]diazepin-2-yl)amino)-N-(1-(2-(1-(4-((2,6-dioxopiperidin-3-yl)amino)-2,5-difluorophenyl)piperidin-4-yl)ethyl)piperidin-4-yl)-3-methoxybenzamide] | < 30 | < 30 | ++ (++: <0.5) |  |  | 
COc1cc(C(=O)NC2CC3(CCN(CCC4CCN(c5cc(F)c(NC6CCC(=O)NC6=O)cc5F)CC4)CC3)C2)ccc1Nc1ncc2c(n1)N(C(C)C)CC(F)(F)C(=O)N2C (centres unmarked) [Compound 61, 4-((7,7-difluoro-9-isopropyl-5-methyl-6-oxo-6,7,8,9-tetrahydro-5H-pyrimido[4,5-b][1,4]diazepin-2-yl)amino)-N-(7-(2-(1-(4-((2,6-dioxopiperidin-3-yl)amino)-2,5-difluorophenyl)piperidin-4-yl)ethyl)-7-azaspiro[3.5]nonan-2-yl)-3-methoxybenzamide] | < 30 | < 30 | ++ (++: <0.5) |  |  | 
CCN1CC(F)(F)C(=O)N(C)c2cnc(Nc3ccc(C(=O)NC4CC5(CCN(CC6CCN(c7ccc(C8CCC(=O)NC8=O)cc7F)CC6)CC5)C4)cc3OC)nc21 (centres unmarked) [Compound 4, N(7-((1-(4-(2,6-dioxopiperidin-3-yl)-2-fluorophenyl)piperidin-4-yl)methyl)-7-azaspiro[3.5]nonan-2-yl)-4-((9-ethyl-7,7-difluoro-5-methyl-6-oxo-6,7,8,9-tetrahydro-5H-pyrimido[4,5-b][1,4]diazepin-2-yl)amino)-3-methoxybenzamide] | < 30 | < 30 |  | > 10000 |  | 
COc1cc(C(=O)NC2CC3(CCN(CCC4CCN(c5ccc(NC6CCC(=O)NC6=O)cc5F)CC4)CC3)C2)ccc1Nc1ncc2c(n1)N(C(C)C)CC(F)(F)C(=O)N2C (centres unmarked) [Compound 31, 4-((7,7-difluoro-9-isopropyl-5-methyl-6-oxo-6,7,8,9-tetrahydro-5H-pyrimido[4,5-b][1,4]diazepin-2-yl)amino)-N-(7-(2-(1-(4-((2,6-dioxopiperidin-3-yl)amino)-2-fluorophenyl)piperidin-4-yl)ethyl)-7-azaspiro[3.5]nonan-2-yl)-3-methoxybenzamide] | < 30 | < 30 | +++ (+++: <0.3) |  |  | 
CC[C@@H]1C(=O)N(C)c2cnc(Nc3ccc(C(=O)NC4CCN(C)CC4)cc3OC)nc2N1C1CCCC1 [Comparative Compound 2, BI2536, reference compound] |  |  |  |  | 3090 | 
CC[C@@H]1C(=O)N(C)c2cnc(Nc3ccc(C(=O)N[C@H]4CC[C@H](N5CCN(CC6CC6)CC5)CC4)cc3OC)nc2N1C(C)C [Comparative Compound 3, Volasertib, reference compound] |  |  |  |  | 2940 | 
COc1cc(C(=O)NC2CC3(CCN(CC4CCN(c5cc(F)c(NC6CCC(=O)NC6=O)cc5F)CC4)CC3)C2)ccc1Nc1ncc2c(n1)N(C1CCCC1)CC(F)(F)C(=O)N2C (centres unmarked) [Compound 70, 4-((9-cyclopentyl-7,7-difluoro-5-methyl-6-oxo-6,7,8,9-tetrahydro-5H-pyrimido[4,5-b][1,4]diazepin-2-yl)amino)-N-(7-((1-(4-((2,6-dioxopiperidin-3-yl)amino)-2,5-difluorophenyl)piperidin-4-yl)methyl)-7-azaspiro[3.5]nonan-2-yl)-3-methoxybenzamide] | < 30 | < 30 | +++ (+++: <0.3) |  |  | 
COc1cc(C(=O)NC2CCN(C)CC2)c(F)cc1Nc1ncc2c(n1)N(C1CCCC1)CC(F)(F)C(=O)N2C [Comparative Compound 4, TAK960, reference compound] |  |  |  |  | 9150 | 
CC[C@@H]1C(=O)N(C)c2cnc(Nc3ccc(C(=O)NCCOCCOCCNc4cccc5c4C(=O)N(C4CCC(=O)NC4=O)C5=O)cc3OC)nc2N1C1CCCC1 (some centres unmarked) [Comparative Compound 1, reference compound] |  |  |  |  |  | exhibited a high level of cytotoxicity in normal cell line
